Ten compounds from patent US20130101684A1, “Compounds, Compositions, And Methods For Reducing Or Eliminating Bitter Taste” (Chromocell Corporation, priority 2010, published 2013) can be followed below.

Read-outs that look alike come from different tables or passages of the source.

Holding throughout (format): in vivo, humans
For assay [1], the system named is bitter taste of potassium lactate foodstuffs. As to the kind of experiment: Two-alternative forced choice (2AFC) sip and spit test of potassium lactate turkey foodstuff slurries. Particulars: turkey slurry with potassium lactate (KLac) 4.5%, 1% EtOH, 2AFC vs KLac slurry standard, dash = at none of the tested conc.; for minimal effective concentration: Homo sapiens. Here is the method:
In a blind taste test, panelists received two portions of turkey slurry—one portion being the KCl foodstuff slurry standard and the other being one of the KCl test foodstuff slurries (each prepared as described in Example 5). The panelists tasted each of the portions by sipping and spitting. Each sample was tested in 2-4 discrete taste test experiments. Panelists were asked to rinse with water, eat a cracker, and wait about 10 minutes between samples. In each case, the panelists were asked to compare the bitter taste of the two turkey samples to each other (i.e. panelists were asked to indicate which sample was less bitter). Edible potassium lactate food compositions (“potassium lactate test foodstuff slurries”) were prepared as follows, Dehydrated, salt-free turkey powder was weighed and mixed with various amounts of potassium lactate and/or sodium lactate and then solubilized with boiling water to create a homogenized solubilized turkey slurry. Varying amounts of the test compounds were dissolved in an amount of ethanol or water (depending on the solubility of the compound) to create a 5 mg/mL stock compound solution. An amount of this stock compound solution was then added to the turkey slurry. Enough EtOH is then added to the resulting stock compound/turkey slurry so that the final slurry contains 1% EtOH. The final slurry was again homogenized by boiling and mixing and allowed to cool to yield the final slurry for taste testing. Potassium lactate foodstuff slurry standards were similarly prepared without any test compound. […] The effect of the test compounds on the perception of the bitter taste of potassium lactate foodstuffs in humans was evaluated using the two-alter native-forced-choice “sip and spit” test described in Example 6.

Assay [2] concerns bitter taste of an aqueous solution of KCl. Description: Sip and spit taste test of aqueous KCl test solutions, bitterness rated 0-15 against KCl solution standards. Particulars: aqueous KCl 4.85 g/L, 1% EtOH, human panel, vs KCl solution standard, dash = at none of the tested conc. Here is the method: Edible KCl solution compositions (“KCl test solutions”) were prepared by first dissolving varying amounts of the test compounds in an amount of ethanol or water (depending on the solubility of the compound) to create a 5 mg/mL stock compound solution. An amount of this stock compound solution is then added to an aqueous KCl solution. Enough EtOH is then added to the resulting stock compound/KCl solution so that the final KCl test solution contains 1% EtOH. KCl solution standards were similarly prepared by dissolving various amounts of KCl in water and ethanol without adding any test compound. […] The effect of the test compounds on the perception of the bitter taste of an aqueous solution of KCl in humans was evaluated using a “sip and Spit” test as follows. A set of KCl solutions standards was developed and each standard solution was assigned a bitterness taste score of 0-15 (corresponding to aqueous KCl concentrations of 0 mM-120 mM). Panelists were trained to recognize these standards. In addition, before each day of testing, panelists were tested to see if they could determine differences in taste between the standard solutions, if a panelist was unable to recognize a change in KCl concentration, they were excluded from the panel for that day. In a blind taste test, panelists were asked to compare the bitter taste of a small quantity (e.g. 8 ml) of each of the KCl Test Solutions to the taste of a KCl solution standard, without swallowing (see, e.g., Table 1). Specifically, panelists were asked to rate the bitterness of each KCl Test Solution on a scale of 0-15 using the same scale developed for the KCl solution standards. Each sample was tested in 2-4 discrete taste test experiments. Panelists were asked to rinse with water, eat a cracker, and wait approximately 10 minutes between samples.

Assay [3] deals with bitter taste of KCl foodstuff slurries. As to the kind of experiment: Two-alternative forced choice (2AFC) sip and spit test of KCl turkey foodstuff slurries. To be noted: turkey slurry with KCl 1.6%, 1% EtOH, 2AFC vs KCl slurry standard, dash = at none of the tested conc.; for minimal effective concentration: Homo sapiens. Here is the method:
Edible KCl food compositions (“KCl test foodstuff slurries”) were prepared as follows. Dehydrated, salt-free turkey powder was weighed and mixed with various amounts of KCl and/or NaCl and then solubilized with boiling water to create a homogenized solubilized turkey slurry. Varying amounts of the test compounds were dissolved in an amount of ethanol or water (depending on the solubility of the compound) to create a 5 mg/mL stock compound solution. An amount of this stock compound solution was then added to the turkey slurry. Enough EtOH is then added to the resulting stock compound/turkey slurry so that the slurry contains 1% EtOH. The slurry was again homogenized by boiling and mixing and allowed to cool to yield the final KCl test foodstuff slurry for taste testing. KCl foodstuff slurry standards were similarly prepared without any test compound. […] The effect of the test compounds on the perception of the bitter taste of KCl foodstuff slurries in humans was evaluated using a two-alternative-forced-choice “sip and spit” test as follows. In a blind taste test, panelists received two portions of turkey slurry—one portion being the KCl foodstuff slurry standard and the other being one of the KCl test foodstuff slurries (each prepared as described in Example 5). The panelists tasted each of the portions by sipping and spitting. Each sample was tested in 2-4 discrete taste test experiments. Panelists were asked to rinse with water, eat a cracker, and wait about 10 minutes between samples. In each case, the panelists were asked to compare the bitter taste of the two turkey samples to each other (i.e. panelists were asked to indicate which sample was less bitter).

Assay [4] deals with bitter taste of an aqueous solution of potassium lactate. Description: Sip and spit taste test of aqueous potassium lactate test solutions. To be noted: aqueous potassium lactate (KLac) 41 g/L, 1% EtOH, human panel, dash = at none of the tested conc. As for the experimental part: A set of KCl solutions standards was developed and each standard solution was assigned a bitterness taste score of 0-15 (corresponding to aqueous KCl concentrations of 0 mM-120 mM). Panelists were trained to recognize these standards. In addition, before each day of testing, panelists were tested to see if they could determine differences in taste between the standard solutions, if a panelist was unable to recognize a change in KCl concentration, they were excluded from the panel for that day. In a blind taste test, panelists were asked to compare the bitter taste of a small quantity (e.g. 8 ml) of each of the KCl Test Solutions to the taste of a KCl solution standard, without swallowing (see, e.g., Table 1). Specifically, panelists were asked to rate the bitterness of each KCl Test Solution on a scale of 0-15 using the same scale developed for the KCl solution standards. Each sample was tested in 2-4 discrete taste test experiments. Panelists were asked to rinse with water, eat a cracker, and wait approximately 10 minutes between samples. Edible potassium lactate solution compositions (“potassium lactate test solutions”) were prepared by first dissolving varying amounts of the test compounds in an amount of ethanol or water (depending on the solubility of the compound) to create a 5 mg/mL stock compound solution. An amount of this stock compound solution is then added to an aqueous potassium lactate solution. Enough EtOH is then added to the resulting stock compound/potassium lactate solution so that the final potassium lactate test solution contains 1% EtOH. Potassium lactate solution standards were similarly prepared by dissolving various amounts of potassium lactate in water and ethanol without adding any test compound. […] The effect of the test compounds on the perception of the bitter taste of an aqueous solution of potassium lactate in humans was evaluated using the “sip and spit” test described in Example 2.

Where [5] appears, read: read-out: Conc. at Which At Least 50% of Panelist Discerned Decrease in Bitter Taste and p ≦ 0.1.
The mark [6] stands for this setting: read-out: Conc. Where Decrease in Bitter Taste Discerned and p ≦ 0.1.
Setting [7] is: read-out: Conc. Where Decrease in Bitter Taste Was Discerned.
Setting [8] is: read-out: Conc. at Which At Least 50% of Panelist Discerned Decrease in Bitter Taste.

Regarding `CCn1ncc(Br)c1C(=O)Nc1ccccc1C(=O)OC` [Compound 23], the “Conc. at Which At Least 50% of Panelist Discerned Decrease in Bitter Taste and p ≦ 0.1” value in assay [1] is reported as 1 ppm. Moreover, in assay [2], the “Conc. Where Decrease in Bitter Taste Discerned and p ≦ 0.1” value was found to be 40 ppm; the “Conc. Where Decrease in Bitter Taste Was Discerned” value is listed as 40 ppm.

With `COC(=O)c1ccccc1NC(=O)c1c(I)cnn1C` [Compound 24], the minimal effective concentration came out at 30 µg/mL in assay [1] (setting [5]) and 10 µg/mL in assay [3] (setting [5]).

On to `CCn1cc(Br)c(C(=O)Nc2ccccc2C(=O)OC)n1` [Compound 25], for which the minimal effective concentration turned out to be 10 µg/mL in assay [4] (setting [6]), 10 µg/mL in assay [4] (setting [7]) and 1 µg/mL in assay [1] (setting [8]).

On to `CCOC(=O)c1ccccc1NC(=O)c1c(Cl)cnn1C` [Compound 26], for which the minimal effective concentration in assay [4] (setting [6]) came to 1 µg/mL; in assay [1] (setting [8]), 30 µg/mL; in assay [3] (setting [5]), 1 µg/mL.

`O=C(O)c1cccc2c1NC(c1cccc(Br)c1)C1CC=CC21` (stereo not drawn) [Compound 37]: the minimal effective concentration was 10 µg/mL in assay [1] (setting [5]), 1 µg/mL in assay [2] (setting [6]) and 1 µg/mL in assay [2] (setting [7]).

As to `COC(=O)c1cccc2c1NC(c1ccc(Cl)cc1Cl)C1CC=CC21` (stereo not drawn) [Compound 38], the minimal effective concentration stood at 30 µg/mL in assay [1] (setting [8]), 1 µg/mL in assay [2] (setting [6]) and 1 µg/mL in assay [2] (setting [7]).

In the case of `CCCC(=O)Nc1ccc(OC)c(Cl)c1` [Compound 49], the minimal effective concentration in assay [4] (setting [6]) turned out to be 30 µg/mL; in assay [4] (setting [7]) it was 30 µg/mL; in assay [1] (setting [8]), 30 µg/mL; in assay [1] (setting [5]), 30 µg/mL; in assay [3] (setting [8]), 1 µg/mL; in assay [3] (setting [5]) it was 1 µg/mL. Moreover, the minimal effective concentration in assay [2] (setting [6]) and in assay [2] (setting [7]) was 30 µg/mL in each case.

Regarding `CCC(=O)Nc1ccc(OC)c(Cl)c1` [Compound 51], the minimal effective concentration in assay [1] (setting [8]) was 10 µg/mL; in assay [2] (setting [6]), 15 µg/mL; in assay [2] (setting [7]), 15 µg/mL.

On to `Cc1ccc(NC(=O)CCOc2ccccc2)cc1Cl` [Compound 53], for which, in assay [4], the “Conc. Where Decrease in Bitter Taste Discerned and p ≦ 0.1” value amounted to 1 ppm; the “Conc. Where Decrease in Bitter Taste Was Discerned” value is given as 1 ppm. Further, the “Conc. at Which At Least 50% of Panelist Discerned Decrease in Bitter Taste” value in assay [1] is 30 ppm. Moreover, in assay [3], the “Conc. at Which At Least 50% of Panelist Discerned Decrease in Bitter Taste” value was determined as 30 ppm; the “Conc. at Which At Least 50% of Panelist Discerned Decrease in Bitter Taste and p ≦ 0.1” value came out at 30 ppm. In addition, in assay [2], the “Conc. Where Decrease in Bitter Taste Discerned and p ≦ 0.1” value was 25 ppm; the “Conc. Where Decrease in Bitter Taste Was Discerned” value is given as 25 ppm.

Turning to `Cc1ccc(NC(=O)C2COc3ccccc3O2)cc1Cl` (stereo not drawn) [Compound 56], the “Conc. Where Decrease in Bitter Taste Discerned and p ≦ 0.1” value in assay [4] is given as 10 ppm. In assay [1], the “Conc. at Which At Least 50% of Panelist Discerned Decrease in Bitter Taste” value is on record as 1 ppm; the “Conc. at Which At Least 50% of Panelist Discerned Decrease in Bitter Taste and p ≦ 0.1” value was found to be 1 ppm. In assay [2], the “Conc. Where Decrease in Bitter Taste Discerned and p ≦ 0.1” value came out at 1 ppm.
